# Assay results reported in DBAASP.
# “And” between values parts separate entries of the source, which are not always exact repeats. Identical values can stand only once.
# Legend:
# Experiment in all cases: ≥ marks a high value that may be exact or a test limit, other limits are often not marked, values filed in µg/mL are converted to µM
# [1] = tested on: Salmonella typhimurium KCTC 1926
# [2] = tested on: Pseudomonas aeruginosa ATCC 15692
# [3] = tested on: Enterococcus faecalis NCTC 12697
# [4] = tested on: Escherichia coli NCTC 10418
# [5] = tested on: Candida albicans NCPF 1467
# [6] = tested on: Pseudomonas aeruginosa ATCC 27853
# [7] = tested on: Staphylococcus aureus NCTC 12493
# [8] = tested on: Staphylococcus aureus NCTC 10788
# [9] = tested on: Escherichia coli ATCC 25922
# [10] = tested on: Salmonella typhimurium ATCC 7731
# [11] = tested on: Staphylococcus aureus ATCC 43300
# [12] = tested on: Staphylococcus epidermidis ATCC 12228
# Escherichia coli UB1005 = tested on: Escherichia coli UB1005
# [13] = tested on: Enterococcus faecalis ATCC 29212
# [14] = tested on: Bacillus subtilis CMCC 63501
# [15] = tested on: Salmonella enterica subsp. enterica serovar Pullorum C79-13
# [16] = tested on: Pseudomonas corrugata DSM 7228
# [17] = tested on: Pectobacterium carotovorum subsp. carotovorum DSM 30168
# [18] = tested on: Xanthomonas vesicatoria DSM 50861
# [19] = tested on: Pseudomonas syringae pv. tomato DC3000
# [20] = tested on: Pseudomonas syringae pv. syringae DSM 10604
# [21] = tested on: Clavibacter michiganensis subsp. michiganensis DSM 46294
# [22] = tested on: Klebsiella pneumoniae ATCC 700603
# [23] = tested on: Candida albicans ATCC 90028
# [24] = tested on: Cryptococcus neoformans ATCC 208821
# [25] = tested on: Acinetobacter baumannii ATCC 19606
# [26] = tested on: Staphylococcus aureus ATCC 29213
# [27] = tested on: Candida albicans ATCC 14053
# [28] = tested on: Klebsiella pneumoniae ATCC 13883
smiles,measurement,setting,value
CC[C@H](C)[C@H](NC(=O)CNC(=O)[C@H](Cc1cnc[nH]1)NC(=O)[C@@H](NC(=O)[C@@H](NC(=O)[C@H](CO)NC(=O)CNC(=O)[C@@H](NC(=O)[C@H](Cc1ccccc1)NC(=O)[C@H](CCCN=C(N)N)NC(=O)[C@H](CC(C)C)NC(=O)[C@@H](N)Cc1ccccc1)[C@@H](C)CC)C(C)C)[C@@H](C)CC)C(=O)NCC(=O)N[C@@H](Cc1cnc[nH]1)C(=O)N[C@@H](CC(C)C)C(=O)N[C@H](C(=O)N[C@@H](Cc1cnc[nH]1)C(=O)N[C@@H](Cc1cnc[nH]1)C(=O)N[C@H](C(=O)NCC(=O)N[C@H](C(=O)N[C@@H](C)C(=O)N[C@@H](CC(C)C)C(N)=O)C(C)C)[C@@H](C)CC)C(C)C [FLRFIGSVIHGIGHLVHHIGVAL],MIC,[1],≥ 64 µM
same,MIC,[2],≥ 64 µM
CC[C@H](C)[C@H](NC(=O)[C@@H]1CCCN1C(=O)[C@H](CC(C)C)NC(=O)[C@@H](N)Cc1ccccc1)C(=O)N[C@H](C(=O)N[C@@H](C)C(=O)N[C@@H](CCCCN)C(=O)N[C@@H](CC(C)C)C(=O)N[C@@H](CC(C)C)C(=O)N[C@@H](CO)C(=O)NCC(=O)N[C@@H](CC(C)C)C(=O)N[C@@H](CC(C)C)C(=O)NCC(=O)N[C@@H](CCCN=C(N)N)C(=O)N[C@@H](CCCCN)C(=O)N[C@@H](CCCCN)C(=O)N[C@@H](CCCN=C(N)N)C(=O)N[C@@H](CCCN=C(N)N)C(=O)N[C@@H](CCC(N)=O)C(=O)N[C@@H](CCCN=C(N)N)C(=O)N[C@@H](CCCN=C(N)N)C(=O)N[C@@H](CCCN=C(N)N)C(N)=O)C(C)C [FLPIVAKLLSGLLGRKKRRQRRR],MIC,[3],2 µM
same,MIC,[4],2 µM
same,MIC,[5],1 µM
same,MIC,[6],2 µM
same,MIC,[7],2 µM
same,MIC,[8],1 µM
CC[C@H](C)[C@H](NC(=O)[C@H](Cc1cnc[nH]1)NC(=O)[C@H](Cc1cnc[nH]1)NC(=O)[C@@H](NC(=O)[C@H](CC(C)C)NC(=O)[C@H](Cc1cnc[nH]1)NC(=O)CNC(=O)[C@H](C)NC(=O)CNC(=O)[C@H](Cc1cnc[nH]1)NC(=O)[C@@H](NC(=O)[C@@H](NC(=O)[C@H](CO)NC(=O)CNC(=O)[C@H](C)NC(=O)[C@H](Cc1ccccc1)NC(=O)[C@H](CCCN=C(N)N)NC(=O)[C@H](CC(C)C)NC(=O)[C@@H](N)Cc1ccccc1)C(C)C)[C@@H](C)CC)C(C)C)C(=O)NCC(=O)N[C@H](C(=O)N[C@@H](C)C(=O)N[C@@H](CC(C)C)C(N)=O)C(C)C [FLRFAGSVIHGAGHLVHHIGVAL],MIC,[9],4 µM and 8 µM
same,MIC,[1],≥ 64 µM
same,MIC,[2],≥ 32 µM
CC(C)C[C@H](NC(=O)[C@H](CCCNC(=N)N)NC(=O)CNC(=O)CNC(=O)[C@@H](N)CCCNC(=N)N)C(=O)N[C@@H](CS)C(=O)N[C@@H](Cc1ccc(O)cc1)C(=O)N[C@@H](CS)C(=O)N[C@@H](CCCNC(=N)N)C(=O)N[C@@H](CCCNC(=N)N)C(=O)N[C@@H](CCCNC(=N)N)C(=O)N[C@@H](Cc1ccccc1)C(=O)N[C@@H](CS)C(=O)N[C@H](C(=O)N[C@@H](CS)C(=O)N[C@H](C(=O)NCC(=O)N[C@@H](CCCNC(=N)N)C(N)=O)C(C)C)C(C)C [RGGRLCYCRRRFCVCVGR],MIC,[10],8 µM
same,MIC,[6],16 µM
same,MIC,[11],2 µM
same,MIC,[12],16 µM
same,MIC,Escherichia coli UB1005,2 µM
same,MIC,[13],16 µM
same,MIC,[14],8 µM
same,MIC,[15],2 µM
CC[C@H](C)[C@H](NC(=O)CNC(=O)CNC(=O)[C@H](CC(C)C)NC(=O)[C@@H](N)Cc1ccccc1)C(=O)N[C@@H](CC(C)C)C(=O)N[C@@H](CC(N)=O)C(=O)N[C@H](C(=O)N[C@H](C(=O)N[C@H](C(=O)NCC(=O)N[C@@H](CC(C)C)C(=O)N[C@@H](CC(C)C)C(N)=O)[C@@H](C)O)[C@@H](C)CC)[C@@H](C)O [FLGGILNTITGLL],MIC,[5],≥ 200 µM
same,MIC,[8],30 µM
CC[C@H](C)[C@H](NC(=O)[C@@H](NC(=O)[C@H](CCCCN)NC(=O)[C@H](CCCCN)NC(=O)[C@@H](NC(=O)[C@@H](NC(=O)[C@H](CCCCN)NC(=O)[C@H](CCCCN)NC(=O)[C@H](CCCCN)NC(=O)[C@H](CCCCN)NC(=O)[C@H](CCCCN)NC(=O)[C@@H](N)CCCCN)[C@@H](C)CC)[C@@H](C)CC)[C@@H](C)CC)C(N)=O [KKKKKKIIKKII],MIC,[16],6.68 µM
same,MIC,[17],6.68 µM
same,MIC,[18],6.68 µM
same,MIC,[19],0.668 µM
same,MIC,[20],1.67 µM
same,MIC,[21],6.68 µM
CC[C@H](C)[C@H](NC(=O)[C@H](C)NC(=O)[C@H](Cc1cnc[nH]1)NC(=O)[C@@H]1CCCN1C(=O)[C@@H](NC(=O)[C@H](CC(C)C)NC(=O)[C@H](CO)NC(=O)[C@H](Cc1ccccc1)NC(=O)[C@H](CC(C)C)NC(=O)[C@@H](N)Cc1ccccc1)[C@@H](C)CC)C(=O)NCC(=O)NCC(=O)N[C@@H](CC(C)C)C(=O)N[C@H](C(=O)N[C@@H](CO)C(=O)N[C@@H](C)C(=O)N[C@@H](Cc1ccccc1)C(=O)N[C@@H](CCCCN)C(N)=O)[C@@H](C)CC [FLFSLIPHAIGGLISAFK],MIC,[4],≥ 150 µM
same,MIC,[5],≥ 64 µM
same,MIC,[8],20 µM
CC(C)C[C@H](NC(=O)CNC(=O)[C@H](CO)NC(=O)CNC(=O)[C@H](Cc1cnc[nH]1)NC(=O)[C@H](CCCN=C(N)N)NC(=O)CN)C(=O)NCC(=O)N[C@@H](Cc1cnc[nH]1)C(=O)N[C@@H](CO)C(=O)N[C@@H](CO)C(=O)N[C@@H](CO)C(=O)N[C@@H](Cc1cnc[nH]1)C(=O)NCC(=O)N[C@@H](CCC(N)=O)C(=O)N[C@@H](Cc1cnc[nH]1)C(=O)NCC(=O)N[C@@H](CO)C(=O)NCC(=O)N[C@@H](CO)C(=O)NCC(=O)N[C@@H](CCCN=C(N)N)C(=O)O [GRHGSGLGHSSSHGQHGSGSGR],MIC,[9],> 15.2 µM
same,MIC,[22],> 15.2 µM
same,MIC,[6],> 15.2 µM
same,MIC,[23],15.2 µM
same,MIC,[11],> 15.2 µM
same,MIC,[24],15.2 µM
same,MIC,[25],> 15.2 µM
CC[C@H](C)[C@H](NC(=O)[C@H](CC(C)C)NC(=O)[C@H](CCCN=C(N)N)NC(=O)[C@H](CCCCN)NC(=O)[C@@H](NC(=O)[C@@H](NC(=O)[C@H](CCCCN)NC(=O)[C@H](CCCCN)NC(=O)[C@H](CCCCN)NC(=O)[C@@H](N)CCCCN)[C@@H](C)CC)[C@@H](C)CC)C(N)=O [KKKKIIKRLI],MIC,[16],3.94 µM
same,MIC,[17],7.89 µM
same,MIC,[18],7.89 µM
same,MIC,[19],0.789 µM
same,MIC,[20],0.0789 µM
same,MIC,[21],7.89 µM
CC[C@H](C)[C@H](NC(=O)[C@@H](NC(=O)[C@H](CC(N)=O)NC(=O)[C@H](CO)NC(=O)[C@H](CC(C)C)NC(=O)[C@@H](NC(=O)CN)C(C)C)C(C)C)C(=O)NCC(=O)N[C@@H](Cc1ccc(O)cc1)C(=O)N[C@@H](CC(C)C)C(=O)N[C@@H](CCCCN)C(=O)N[C@@H](CCCCN)C(=O)N[C@@H](CC(C)C)C(=O)NCC(=O)N[C@H](C(=O)NCC(=O)N[C@@H](C)C(=O)N[C@@H](CC(C)C)C(=O)N[C@@H](CC(N)=O)C(=O)N[C@@H](C)C(=O)N[C@H](C(=O)N[C@@H](CC(C)C)C(=O)N[C@@H](CCCCN)C(=O)N[C@@H](CCC(N)=O)C(N)=O)C(C)C)[C@@H](C)O [GVLSNVIGYLKKLGTGALNAVLKQ],MIC,[26],72 µM
same,MIC,[9],25.3 µM
same,MIC,[27],≥ 144 µM
same,MIC,[6],144 µM
same,MIC,[13],72 µM
same,MIC,[28],25.3 µM
